Test results published in publication PMC12024814, “Ruthenium(II)–Arene Complexes with a 2,2′-Bipyridine Ligand as Anti-Aβ Agents” (Biomolecules, 2025).

What was measured:
[1] = Log D7.4 (1-octanol/PBS shake method, absorbance); assay type: physicochemical; conditions: 1-octanol/PBS pH 7.4, 50 μM, 2 h mixing at room temperature
Protocol: A stock solution was prepared from each Ru complex using dimethyl sulfoxide (DMSO), then diluted to 6 mL and a concentration of 50 μM using phosphate-buffered saline (PBS, pH 7.4), where the final DMSO concentration was less than 5%. The absorbance spectra were measured, then 6 mL of 1-octanol was added, and the resulting biphasic sample was mixed at room temperature for 2 h using an IKA Trayster inversion mixer (60 rpm). Following this, the aqueous layer was extracted, and its absorbance spectra were measured. Log D values were determined using the equation below: LogD7.4=logAbs @ λmax before mixing/Abs @ λmax after mixing−1
The ability of Aβ-targeting therapeutics to cross the blood–brain barrier (BBB) is essential for their success. […] For predicting passage across the BBB, one metric that is used is the n-octanol/water partition coefficient of the molecule (log P). For Ru therapeutics, pH can play an important role in the speciation and stability of the complex; therefore, the determination of log D was performed. For such an analysis, the complexes were initially dissolved in DMSO, then diluted using PBS. After initial absorption measurements, the aqueous samples were mixed with an equal volume of 1-octanol for 2 h. The short mixing time is necessary to minimize any ligand exchange that may occur (vide infra), while still providing an accurate value for the partitioning. […] To the best of our knowledge, the partitioning for these complexes has not been evaluated previously, while the values obtained are similar to previous Ru(II)–arene complexes with bidentate ligands.

[2] = biological target: T1, human serum albumin (HSA) (Homo sapiens, UniProt P02768); assay: Protein binding assay, dansyl glycine (DG) displacement, Sudlow site II; conditions: for Log K (DG), conditional binding constant to serum albumin: dansyl glycine probe, Sudlow site II, Stern–Volmer slope, HSA and DG 2.5 μM, PBS; for Ranking HSA: scale 1 to 5 (1 = best, 5 = worst), binding to HSA
T1 construct: purchased Sigma Aldrich
Protocol: A stock of human serum albumin (HSA, 100 μM) was prepared using PBS, while the probes dansyl glycine (DG) and warfarin (WF) were prepared by initially dissolving them in DMSO and diluting them with PBS until the concentration of DMSO was less than 5%. Solutions of each Ru complex were prepared by initial dissolution in DMSO and subsequent dilution using PBS until the concentration of DMSO was less than 5%. The total volume of each sample was 3.5 mL, where the concentration of HSA and DG/WF was 2.5 μM throughout the experiment. The Ru concentration ranged from 0 μM to 62.5 μM, with an increase of 12.5 μM for each sample. In total, six samples were prepared for each protein binding assay. After preparation, the samples were placed on an IKA Trayster inversion mixer (60 rpm) for 30 s and incubated at approximately 28 °C in a Neslab gp-200 for 15 min, before being placed back on the inversion mixer (60 rpm) for 30 s. All fluorescence measurements for the protein binding assay were made using a PTI QuantiMaster 50, and the samples were measured at room temperature with conditions respective to the probe.
One important consideration for a potential AD therapeutic is its interaction with serum proteins, specifically albumin (HSA). […] To determine the potential association of the prepared Ru complexes with HSA, a protein binding assay was performed. For these studies, the displacement of two fluorometric probes was used to determine the relative affinity of the Ru complexes for two of the established binding sites on HSA. The first probe, warfarin (WF), an anticoagulant, binds selectively to Sudlow site I on HSA [55], while the second probe used was dansyl glycine (DG), which selectively binds to Sudlow site II on HSA [56]. As these are the two major binding sites on the protein, the probes allow for observations of binding events that occur within these hydrophobic pockets. Individually, the probes were initially mixed with HSA, followed by increasing amounts of the respective Ru complexes, whereby the decrease in fluorescence signals from the respective probes (Figures S22–S30) was used to construct a Stern–Volmer plot, where the slope of the line represents the conditional binding constant (K’) for the respective Ru complexes to each site (Figure 8).

[3] = Aqueous stability by 1H NMR (DMSO-D6/D2O, 37 °C); assay type: physicochemical; conditions: for incubation time at which new 1H NMR signals (ligand exchange) reached maximum intensity: 25% DMSO-D6 in D2O; for ligand exchange in aqueous media (1H NMR): DMSO-D6/D2O, up to 24 h (RuBtB in 75% DMSO)
Protocol: A common step in the mechanism of action for most metal-based drugs is ligand exchange around the metal center. This promotes the coordination of the complex to the penultimate biological target, eliciting the desired response. […] Therefore, to evaluate the relative stability of the prepared complexes, ^1H NMR studies were performed. Following complete dissolution of the complexes in deuterated DMSO, dilution using D2O to a final DMSO concentration of 25% provided aqueous samples that were measured following prolonged incubation at 37 °C.
For the majority of the complexes, new signals emerged in close proximity to those of the parent complex, even without any incubation. […] A previously study monitoring ligand exchange for RuB in the presence of several proteins saw that neither the arene ring nor the 2,2-bipyridine ligands were lost, but rather the labile monodentate chloride ligand was replaced.

T1 sequence (P02768 25-609): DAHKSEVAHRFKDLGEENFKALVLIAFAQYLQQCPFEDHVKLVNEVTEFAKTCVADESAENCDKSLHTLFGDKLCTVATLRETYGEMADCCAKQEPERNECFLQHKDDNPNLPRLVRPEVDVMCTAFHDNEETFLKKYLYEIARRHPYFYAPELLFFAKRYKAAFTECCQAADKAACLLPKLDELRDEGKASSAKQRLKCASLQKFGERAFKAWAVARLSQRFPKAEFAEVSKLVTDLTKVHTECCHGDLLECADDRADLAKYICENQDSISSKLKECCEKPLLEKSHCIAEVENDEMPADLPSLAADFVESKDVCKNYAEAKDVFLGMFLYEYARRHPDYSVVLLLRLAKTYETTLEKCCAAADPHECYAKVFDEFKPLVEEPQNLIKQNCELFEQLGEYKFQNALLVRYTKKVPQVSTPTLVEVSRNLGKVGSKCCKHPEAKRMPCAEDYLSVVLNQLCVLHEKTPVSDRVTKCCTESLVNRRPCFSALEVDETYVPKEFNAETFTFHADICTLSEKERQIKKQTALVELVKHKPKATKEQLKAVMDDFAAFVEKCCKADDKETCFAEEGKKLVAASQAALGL

| Compound | Log D7.4 [1] | Log K (DG), conditional binding constant to serum albumin [2] | Ranking HSA [2] | incubation time at which new 1H NMR signals (ligand exchange) reached maximum intensity [3] [h] | ligand exchange in aqueous media (1H NMR) [3] |
| --- | --- | --- | --- | --- | --- |
| Cc1ccc(C(C)C)cc1.Cc1ccnc(-c2cc(C)ccn2)c1.F[P-](F)(F)(F)(F)F.[Cl-].[Ru+2] [RuBMe, [Ru(η^6-p-cymene)(4,4′-dimethyl-2,2′-bipyridine)Cl]PF6] | −0.99 ± 0.13 | 3.99 | 4 | 1 |  |
| [Ru(η^6-p-cymene)(4,4′-diamino-2,2′-bipyridine)Cl]PF6 [RuBA] | −0.55 ± 0.03 | 4.07 | 5 |  | particularly rapid |
| [Ru(η^6-p-cymene)(4,4′-di-tert-butyl-2,2′-bipyridine)Cl]PF6 [RuBtB] | 0.84 ± 0.03 | 3.85 | 1 |  | no new signals emerged even after 24 h of incubation |
| Cc1ccc(C(C)C)cc1.F[P-](F)(F)(F)(F)F.[Cl-].[Ru+2].c1ccc(-c2ccccn2)nc1 [RuB, [Ru(η^6-p-cymene)(2,2′-bipyridine)Cl]PF6] | −1.90 ± 0.15 | 3.96 | 3 | 1 |  |
| [Ru(η^6-p-cymene)(4,4′-dimethoxy-2,2′-bipyridine)Cl]PF6 [RuBMeO] | −0.74 ± 0.08 | 3.91 | 2 | 1 |  |
